Here are results for five compounds from patent US10894817B2, “Fatty acid modified urocortin-2 analogs for the treatment of diabetes and chronic kidney disease” (priority 2016, dated 2021).

This experiment concerns the target T1, human CRHR2b (Homo sapiens, UniProt Q13324).
T1 construct: expressed in transfected cells; host or cells: Chinese Hamster Ovary (CHO) cells, transient transfection
T1 sequence (Q13324 1-438 isoform Q13324-2): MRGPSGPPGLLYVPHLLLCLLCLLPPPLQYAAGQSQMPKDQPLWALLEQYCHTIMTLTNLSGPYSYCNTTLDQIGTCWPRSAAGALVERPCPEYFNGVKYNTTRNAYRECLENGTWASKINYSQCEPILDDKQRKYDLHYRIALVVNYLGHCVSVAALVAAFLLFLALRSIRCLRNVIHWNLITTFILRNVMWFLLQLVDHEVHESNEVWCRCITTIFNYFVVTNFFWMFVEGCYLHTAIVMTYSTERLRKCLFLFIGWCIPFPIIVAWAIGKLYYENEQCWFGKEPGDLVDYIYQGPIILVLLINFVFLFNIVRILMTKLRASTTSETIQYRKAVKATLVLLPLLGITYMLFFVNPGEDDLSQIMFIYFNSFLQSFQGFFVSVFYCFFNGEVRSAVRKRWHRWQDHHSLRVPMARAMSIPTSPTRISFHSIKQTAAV
The experiment is described as follows: human CRHR2b cell-based cAMP assay. The protocol:
CRHR agonistic activity is measured in a cell-based cAMP assay. Serial dilutions of the test peptides are made in assay buffer containing Hank's Balanced Salt Solution (HBSS, without phenol red) supplemented with 20 mM HEPES and 0.05% lactalbumin enzymatic hydrolysate (LAH) (“assay buffer”). […] A one to three dilution of the test peptides is used in both assays. Receptor over-expressing Chinese Hamster Ovary (CHO) cell line is used for the human CRHR2b assay. […] AF011406.1). Forty-eight hours after the transfection, the cells are centrifuged to remove the culture media and resuspended in fetal bovine serum containing 5% DMSO. They are cryofrozen and stored in vials in liquid nitrogen (20×10^6 cells/ml/vial). On the day of the assay, cells are thawed and resuspended in cold 30 ml culture media supplemented with 20 mM HEPES. The cells are then centrifuged to remove the media and washed once with HBSS supplemented with 20 mM HEPES. Finally, following the last centrifugation, the cells are resuspended in assay buffer. Thirty-thousand cells are used in the human CRHR2b assay for each treatment. The cells are dispensed into Costar 96-well black polystyrene half area EIA/RIA plates (Corning Incorporated, Corning, N.Y.) followed by the addition of the diluted peptides, each at a volume of 20 μL. The agonist induced cAMP levels are detected using a HTRF cAMP Dynamic 2 kit (CisBio, Bedford, Mass.). After incubation at 37° C. for 30 min, the assay is stopped by cell lysis via the addition of 20 μL of d2-labeled cAMP and followed by 20 μL of cryptate-labeled anti-cAMP antibody, as described by the manufacturer. Cellular cAMP (as a result of agonist stimulation) competes with the d2-labeled cAMP for binding to the antibody. HTRF detection is performed on an Envision plate reader (Perkin Elmer Life and Analytical Sciences, Waltham, Mass.) by measuring ratiometric emission at 620 and 665 nm after excitation at 320 nm. The data are converted to picomoles of cAMP using a standard curve obtained from the same assay performed with varying concentrations of unlabeled cAMP. […] The data are analyzed using a Curve Fitting Tool to calculate ED50. Numeric values shown below in Table 1 represent the mean of multiple runs (number of runs shown in parentheses) following the mean value±SEM.
In general terms: Changes in cAMP serve as a functional read-out for many G protein-coupled receptors.

Setting [1] is: cAMP assay, Table 26, compounds of Example 9, read-out: hCRHR2b Average EC50.

Where two headings read alike, the source gives them in different places. Starred links: 1 amine or outer side, 2 acyl side, 3 side chain; linkers in the order of their positions; H or OH if unused. Residues, ends and D or L forms follow the SMILES beside them. Groups on a side chain read outwards from the residue. *: point of attachment. γGlu = O=C(O)[C@H](CCC(=O)[*:2])N[*:1]; Palmitoyl = CCCCCCCCCCCCCCCC(=O)*

Take `CCCCCCCCCCCCCCCC(=O)N[C@@H](CCC(=O)NCCCC[C@H](NC(=O)[C@H](CCC(N)=O)NC(=O)[C@H](CC(C)C)NC(=O)[C@H](CC(C)C)NC(=O)CNC(=O)[C@@H](NC(=O)[C@@H]1CCCN1C(=O)[C@@H](NC(=O)[C@H](CC(=O)O)NC(=O)[C@H](CC(C)C)NC(=O)[C@H](CO)NC(=O)[C@H](CC(C)C)NC(=O)[C@@H](NC(=O)[C@@H](N)[C@@H](C)CC)C(C)C)C(C)C)[C@@H](C)CC)C(=O)N[C@@H](CC(C)C)C(=O)N[C@@H](CC(C)C)C(=O)N[C@@H](CCC(=O)O)C(=O)N[C@@H](CCC(N)=O)C(=O)N[C@@H](CCC(=O)O)C(=O)N[C@@H](CCCCN)C(=O)N[C@@H](CCC(N)=O)C(=O)N[C@@H](CCC(=O)O)C(=O)N[C@@H](CCCCN)C(=O)N[C@@H](CCC(=O)O)C(=O)N[C@@H](CCCCN)C(=O)N[C@@H](CCC(N)=O)C(=O)N[C@@H](CCC(N)=O)C(=O)N[C@@H](C)C(=O)N[C@H](C(=O)N[C@H](C(=O)N[C@@H](CC(N)=O)C(=O)N[C@@H](C)C(=O)N[C@@H](CCCNC(=N)N)C(=O)N[C@H](C(=O)N[C@@H](CC(C)C)C(=O)N[C@@H](C)C(=O)N[C@@H](CCCNC(=N)N)C(=O)N[C@H](C(N)=O)C(C)C)[C@@H](C)CC)[C@@H](C)O)[C@@H](C)O)C(=O)O` [Compound 21] (H-IVLSLDVPIGLLQK([γGlu-Palmitoyl])LLEQEKQEKEKQQATTNARILARV-NH2): the 50% effective concentration (EC50) under setting [1] was determined as 5.25 nM.

In the case of `CCCCCCCCCCCCCCCC(=O)N[C@@H](CCC(=O)NCCCC[C@H](NC(=O)[C@@H](NC(=O)[C@H](CCC(N)=O)NC(=O)[C@H](CC(C)C)NC(=O)[C@H](CC(C)C)NC(=O)CNC(=O)[C@@H](NC(=O)[C@@H]1CCCN1C(=O)[C@@H](NC(=O)[C@H](CC(=O)O)NC(=O)[C@H](CC(C)C)NC(=O)[C@H](CO)NC(=O)[C@H](CC(C)C)NC(=O)[C@@H](NC(=O)[C@@H](N)[C@@H](C)CC)C(C)C)C(C)C)[C@@H](C)CC)[C@@H](C)CC)C(=O)N[C@@H](CC(C)C)C(=O)N[C@@H](CCC(=O)O)C(=O)N[C@@H](CCC(N)=O)C(=O)N[C@@H](CCC(=O)O)C(=O)N[C@@H](CCCCN)C(=O)N[C@@H](CCC(N)=O)C(=O)N[C@@H](CCC(=O)O)C(=O)N[C@@H](CCCCN)C(=O)N[C@@H](CCC(=O)O)C(=O)N[C@@H](CCCCN)C(=O)N[C@@H](CCC(N)=O)C(=O)N[C@@H](CCC(N)=O)C(=O)N[C@@H](C)C(=O)N[C@H](C(=O)N[C@H](C(=O)N[C@@H](CC(N)=O)C(=O)N[C@@H](C)C(=O)N[C@@H](CCCNC(=N)N)C(=O)N[C@H](C(=O)N[C@@H](CC(C)C)C(=O)N[C@@H](C)C(=O)N[C@@H](CCCNC(=N)N)C(=O)N[C@H](C(N)=O)C(C)C)[C@@H](C)CC)[C@@H](C)O)[C@@H](C)O)C(=O)O` [Compound 22] (H-IVLSLDVPIGLLQIK([γGlu-Palmitoyl])LEQEKQEKEKQQATTNARILARV-NH2), under setting [1], the EC50 was 1.2 nM.

The compound `CCCCCCCCCCCCCCCC(=O)N[C@@H](CCC(=O)NCCCC[C@H](NC(=O)[C@H](CC(C)C)NC(=O)[C@H](CC(C)C)NC(=O)[C@@H](NC(=O)[C@H](CCC(N)=O)NC(=O)[C@H](CC(C)C)NC(=O)[C@H](CC(C)C)NC(=O)CNC(=O)[C@@H](NC(=O)[C@@H]1CCCN1C(=O)[C@@H](NC(=O)[C@H](CC(=O)O)NC(=O)[C@H](CC(C)C)NC(=O)[C@H](CO)NC(=O)[C@H](CC(C)C)NC(=O)[C@@H](NC(=O)[C@@H](N)[C@@H](C)CC)C(C)C)C(C)C)[C@@H](C)CC)[C@@H](C)CC)C(=O)N[C@@H](CCC(N)=O)C(=O)N[C@@H](CCC(=O)O)C(=O)N[C@@H](CCCCN)C(=O)N[C@@H](CCC(N)=O)C(=O)N[C@@H](CCC(=O)O)C(=O)N[C@@H](CCCCN)C(=O)N[C@@H](CCC(=O)O)C(=O)N[C@@H](CCCCN)C(=O)N[C@@H](CCC(N)=O)C(=O)N[C@@H](CCC(N)=O)C(=O)N[C@@H](C)C(=O)N[C@H](C(=O)N[C@H](C(=O)N[C@@H](CC(N)=O)C(=O)N[C@@H](C)C(=O)N[C@@H](CCCNC(=N)N)C(=O)N[C@H](C(=O)N[C@@H](CC(C)C)C(=O)N[C@@H](C)C(=O)N[C@@H](CCCNC(=N)N)C(=O)N[C@H](C(N)=O)C(C)C)[C@@H](C)CC)[C@@H](C)O)[C@@H](C)O)C(=O)O` [Compound 23] (H-IVLSLDVPIGLLQILLK([γGlu-Palmitoyl])QEKQEKEKQQATTNARILARV-NH2) returned an EC50 of 17.9 nM.

Regarding `CCCCCCCCCCCCCCCC(=O)N[C@@H](CCC(=O)NCCCC[C@H](NC(=O)[C@H](CCC(N)=O)NC(=O)[C@H](CCC(=O)O)NC(=O)[C@H](CC(C)C)NC(=O)[C@H](CC(C)C)NC(=O)[C@@H](NC(=O)[C@H](CCC(N)=O)NC(=O)[C@H](CC(C)C)NC(=O)[C@H](CC(C)C)NC(=O)CNC(=O)[C@@H](NC(=O)[C@@H]1CCCN1C(=O)[C@@H](NC(=O)[C@H](CC(=O)O)NC(=O)[C@H](CC(C)C)NC(=O)[C@H](CO)NC(=O)[C@H](CC(C)C)NC(=O)[C@@H](NC(=O)[C@@H](N)[C@@H](C)CC)C(C)C)C(C)C)[C@@H](C)CC)[C@@H](C)CC)C(=O)N[C@@H](CCCCN)C(=O)N[C@@H](CCC(N)=O)C(=O)N[C@@H](CCC(=O)O)C(=O)N[C@@H](CCCCN)C(=O)N[C@@H](CCC(=O)O)C(=O)N[C@@H](CCCCN)C(=O)N[C@@H](CCC(N)=O)C(=O)N[C@@H](CCC(N)=O)C(=O)N[C@@H](C)C(=O)N[C@H](C(=O)N[C@H](C(=O)N[C@@H](CC(N)=O)C(=O)N[C@@H](C)C(=O)N[C@@H](CCCNC(=N)N)C(=O)N[C@H](C(=O)N[C@@H](CC(C)C)C(=O)N[C@@H](C)C(=O)N[C@@H](CCCNC(=N)N)C(=O)N[C@H](C(N)=O)C(C)C)[C@@H](C)CC)[C@@H](C)O)[C@@H](C)O)C(=O)O` [Compound 24, IVLSLDVPIGLLQILLEQK*KQEKEKQQATTNARILARV-NH2] (H-IVLSLDVPIGLLQILLEQK([γGlu-Palmitoyl])KQEKEKQQATTNARILARV-NH2), the concentration giving a half-maximal response (EC50) under setting [1] is 25.3 nM.

On to `CCCCCCCCCCCCCCCC(=O)N[C@@H](CCC(=O)NCCCC[C@H](NC(=O)[C@H](CCC(=O)O)NC(=O)[C@H](CCC(N)=O)NC(=O)[C@H](CCC(=O)O)NC(=O)[C@H](CC(C)C)NC(=O)[C@H](CC(C)C)NC(=O)[C@@H](NC(=O)[C@H](CCC(N)=O)NC(=O)[C@H](CC(C)C)NC(=O)[C@H](CC(C)C)NC(=O)CNC(=O)[C@@H](NC(=O)[C@@H]1CCCN1C(=O)[C@@H](NC(=O)[C@H](CC(=O)O)NC(=O)[C@H](CC(C)C)NC(=O)[C@H](CO)NC(=O)[C@H](CC(C)C)NC(=O)[C@@H](NC(=O)[C@@H](N)[C@@H](C)CC)C(C)C)C(C)C)[C@@H](C)CC)[C@@H](C)CC)C(=O)N[C@@H](CCC(N)=O)C(=O)N[C@@H](CCC(=O)O)C(=O)N[C@@H](CCCCN)C(=O)N[C@@H](CCC(=O)O)C(=O)N[C@@H](CCCCN)C(=O)N[C@@H](CCC(N)=O)C(=O)N[C@@H](CCC(N)=O)C(=O)N[C@@H](C)C(=O)N[C@H](C(=O)N[C@H](C(=O)N[C@@H](CC(N)=O)C(=O)N[C@@H](C)C(=O)N[C@@H](CCCNC(=N)N)C(=O)N[C@H](C(=O)N[C@@H](CC(C)C)C(=O)N[C@@H](C)C(=O)N[C@@H](CCCNC(=N)N)C(=O)N[C@H](C(N)=O)C(C)C)[C@@H](C)CC)[C@@H](C)O)[C@@H](C)O)C(=O)O` [Compound 25] (H-IVLSLDVPIGLLQILLEQEK([γGlu-Palmitoyl])QEKEKQQATTNARILARV-NH2), for which the concentration for a half-maximal effect (EC50) under setting [1] was determined as 63.5 nM.

By EC50 is commonly meant the concentration giving half of the maximal effect.
